# Several values for one entry are separate records, joined by “and”; a condition that tells them apart may be missing. Identical values can stand only once. Entries after “also recorded” stand apart in the source; their conditions may differ.
# Key:
# [1] = tested on: human control primary skin fibroblasts; assay: Immunofluorescence peroxisome counting; assay type: cell-based; conditions: 10 day exposure to 5 mM 4PBA
# Text: Peroxisomes were made visible with immunofluorescence using a polyclonal antibody to the C-terminal tripeptide (SKL) peroxisome targeting signal 1 (PTS1), which is present in most peroxisomal matrix proteins. […] We counted the peroxisomes after 10 days of treatment (Table 3). Slides were scanned visually and cells categorized as having low, medium or high numbers of peroxisomes. For each cell line, the number of peroxisomes is the mean of three ‘low’, four ‘medium’ and three ‘high’ cells (Table 3). There was no difference between control cells and X-ALD cells in either the number of peroxisomes per cell or in the response to 4-PBA. […] The 2.4-fold increase in the number of peroxisomes per cell was statistically significant (P<0.0000001, two-tailed Student's t-test). Peroxisome numbers obtained with an antibody against a peroxisomal membrane protein (Pex14p) gave similar results (data not shown).
# Immunofluorescence and peroxisome counting. […] The anti-SKL (PTSI) antibody was a gift from S. Gould and the anti-Pex11α antibody was a gift from S. Mihalik. To count peroxisomes, we photographed immunofluorescence-stained cells after focusing on the cell nucleus, and determined the peroxisome number per cell with the aid of a colon counter after projecting the slides to enlarge the image.
# [2] = tested on: human primary fibroblasts; assay: Toxicity of 4-PBA concentration in culture; assay type: cell-based; conditions: data not shown
# Text: (§1) The genotypes of the X-ALD patients included missense, nonsense, frame shift and deletion mutations and all of the main clinical phenotypes.
# [3] = tested on: mouse primary fibroblasts; assay: Toxicity of 4-PBA concentration in culture; assay type: cell-based; conditions: data not shown
# Text: as §1
# X-ALD mice = assay: In vivo efficacy: VLCFA levels in brain and adrenal glands after dietary 4-PBA; parameters: species or system mouse
# Method: To measure the in vivo efficacy of 4-PBA, we supplemented mouse chow and water with 4-PBA.
# AMN and Addison-only. […] In vivo delivery of 4-PBA to X-ALD mice. 4-PBA was delivered to X-ALD mice in their regular chow and water. 4-PBA chow was prepared by B'OServ (Holton Industries, Frenchtown, N.J.). […] Brains and adrenal glands from normal LD and X-ALD/4-PBA mice were collected for VLCFA analysis as described.
# (§2) Biochemical measurements. […] For VLCFA measurements, total lipids were extracted, converted to methyl esters, purified by TLC and subjected to capillary GC analysis as described. Duplicate assays were set up independently and were assayed on different days. C24:0 β-oxidation activity of human and mouse fibroblasts and human lymphoblastoid cells was determined by measuring their capacity to degrade [1-^14C]-C24:0 fatty acid (American Radiolabeled Chemicals, St Louis, Mo.) to water-soluble products as described. Phytanic acid oxidation was measured as described. Cells were incubated with [2,3-^3H]-phytanic acid for 24 hours, and the release of ^3H-H2O to the aqueous medium was determined (activity in pmol/hr per mg protein).
# [4] = tested on: human lymphoblastoid cells (EBV-transformed lymphocytes) derived from X-ALD patients; assay: VLCFA (C24:0, C26:0) levels in cultured cells, capillary GC; assay type: cell-based; conditions: for C26:0 Percent Correction: 5 mM 4PBA
# Method: as §1
# Cell lines derived from X-ALD patients and X-ALD mice were grown in MEM (fibroblasts) or RPMI (ymphoblastoid cells) supplemented with fetal calf serum (10%), penicillin (100 U/ml), streptomycin (100 U/mi) and glutamine (2 mM). […] Cells in the second flask were grown without drug for the same length of time and served as controls. The media were changed every 3-4 days.
# as §2
smiles,measurement,setting,value
"O=C(O)CCCc1ccccc1 [4-PBA, 4-Phenyl butyrate]","peroxisome number, Increase",[1]; Mean of four normal cell lines,2.3 fold
same,"peroxisome number, Treated",[1]; Mean of four normal cell lines,939 ± 78 peroxisomes per cell
same,"peroxisome number, Increase",[1]; cell line Normal GM 5565,2.3 fold
same,"peroxisome number, Treated",[1]; cell line Normal GM 5565,961 ± 383 peroxisomes per cell
same,"peroxisome number, Increase",[1]; cell line Normal GM 5659C,2.3 fold
same,"peroxisome number, Treated",[1]; cell line Normal GM 5659C,907 ± 270 peroxisomes per cell
same,"peroxisome number, Increase",[1]; cell line Normal GM 5756,2.3 fold
same,"peroxisome number, Treated",[1]; cell line Normal GM 5756,852 ± 271 peroxisomes per cell
same,"peroxisome number, Increase",[1]; cell line Normal GM 5757A,2.4 fold
same,"peroxisome number, Treated",[1]; cell line Normal GM 5757A,1035 ± 338 peroxisomes per cell
same,concentrations toxic for cells,[2],exceeding 7.5 mM
same,concentrations toxic for cells,[3],exceeding 7.5 mM
same,adrenal gland VLCFA (C24:0 and C26:0) levels,X-ALD mice; dietary 4-PBA for 4 weeks,substantial reduction
same,brain VLCFA (C24:0 and C26:0) levels,X-ALD mice; dietary 4-PBA for 4 weeks,substantial reduction
same,correction of brain C24:0 level,X-ALD mice; dietary 4-PBA for 6 weeks,complete correction; also recorded: complete normalization
same,correction of brain C26:0 level,X-ALD mice; dietary 4-PBA for 6 weeks,78% and 80%
same,time of treatment until C24:0 and C26:0 levels were normalized,[4]; 5 mM 4-PBA,≤ 10 days
same,C26:0 Percent Correction,[4]; exposure 6 days,71%
same,C26:0 Percent Correction,[4]; exposure 10 days,90%
